Where a name gives a salt, the structure may show the parent alone.

The target of the first series is T1, DMT1 (Homo sapiens, UniProt P49281).
T1 sequence (P49281 1-568): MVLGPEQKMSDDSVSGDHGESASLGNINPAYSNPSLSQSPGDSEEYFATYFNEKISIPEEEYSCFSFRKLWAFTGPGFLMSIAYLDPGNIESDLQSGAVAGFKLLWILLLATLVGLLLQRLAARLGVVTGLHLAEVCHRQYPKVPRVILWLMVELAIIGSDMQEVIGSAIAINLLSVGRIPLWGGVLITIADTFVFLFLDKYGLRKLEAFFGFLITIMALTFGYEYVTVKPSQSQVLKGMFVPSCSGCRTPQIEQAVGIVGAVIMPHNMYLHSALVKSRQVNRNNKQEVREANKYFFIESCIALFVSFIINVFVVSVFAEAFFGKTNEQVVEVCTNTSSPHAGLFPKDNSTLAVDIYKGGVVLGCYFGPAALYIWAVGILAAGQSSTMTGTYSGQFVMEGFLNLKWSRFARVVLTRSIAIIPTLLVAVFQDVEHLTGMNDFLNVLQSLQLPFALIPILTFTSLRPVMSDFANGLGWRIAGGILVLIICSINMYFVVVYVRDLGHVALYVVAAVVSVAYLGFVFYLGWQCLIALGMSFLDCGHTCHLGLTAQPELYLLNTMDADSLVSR
As to the kind of experiment: DMT1 Activity Assay (In Vitro Assay). Format: cell-based. The settings on record: read-out: IC50 Activity Level. From the text: In particular, identification of the compounds of the invention ability to modulate, preferably to inhibit, DMT1 activity, can be assessed using a variety of in vitro and in vivo assays, for measuring uptake of reduced iron (Fe^2+). One such protocol involves the screening of chemical agents for ability to modulate the activity of DMT1 thereby identifying it as a modulating agent. The in vitro activity of DMT1 can be measured in cell based assays by either directly measuring iron flux (using a radioactively labelled iron ^55Fe) or by measuring the fluorescence of a cell permeable iron fluorophore such as calcein. Stable cell lines overexpressing DMT1 are exposed to ^55Fe or loaded with calcein and then compound is applied. […] Alternatively, in another format electrophysiological techniques can be used to measure the current or iron or other metals traversing the cell membrane with DMT1 in a Xenopus oocyte or other cell based system (Gunshin et al., Nature, 1997, 31; 388(6641):482-8).
This example discloses various in vitro assay for testing and profiling test agents against DMT1 stably expressed in cells of either an endogenous or recombinant origin. These assays can use stable cell lines overexpressing DMT1 or intestinal cells and intestinal tissue expressing endogenous DMT1. DMT1 function could also be assessed in other cell types that express DMT1. Of greatest relevance would be the erythrocytes (e.g. K562 cells) or hepatocytes (e.g. […]).
DMT1 function can be assessed in a number of ways, including monitoring fluorescence changes of an iron fluorophore (e.g. calcein), monitoring uptake of radiolabelled iron (55Fe or ^59Fe) (Picard et al., J. Biol. Chem., 2000, 275(46):35738-45 and Wetli et al., Chem. Biol. 2006 September; 13(9):965-72), or by assessing the current or transport of iron and other metals into the cells or tissues using standard electrophysiological techniques (Gunshin et al., Nature, 1997, 388(6641):482-8.).
Variations of these assays involve alterations of incubation times, the iron status of the cells and tissues (which may be modulated by chemical chelators or by harvesting from iron deficient animals), the metal cation detected and the pH of the reaction can generally be made by conventional techniques known to those skilled in the art.
As to `N=C(N)SCc1ccccc1C(=O)c1ccccc1CSC(=N)N` [Example 2.25, 2-(6-(amidinothiomethyl)phenyl)carbonyl-1-(amidinothiomethyl)benzene dihydrobromide], the IC50 lay within 100 to 1000 nM. Same read-out and setting: the result for `N=C(N)SCc1ccccc1C(=O)c1ccc(F)cc1CSC(=N)N` [Example 2.26, 2-(6-(amidinothiomethyl)phenyl)carbonyl-1-(amidinothiomethyl)-5-fluorobenzene dihydrobromide] reads 100 to 1000 nM; that for `N=C(N)SCc1ccccc1C(=O)c1cc(F)ccc1CSC(=N)N` [Example 2.27, 2-(6-(amidinothiomethyl)phenyl)carbonyl-1-(amidinothiomethyl)-4-fluorobenzene dihydrobromide], not below 1000 nM; that for `N=C(N)SCc1ccccc1C(=O)c1cc(Cl)ccc1CSC(=N)N` [Example 2.28, 2-(6-(amidinothiomethyl)phenyl)carbonyl-1-(amidinothiomethyl)-4-chlorobenzene dihydrobromide dihydrobromide], not below 1000 nM. The same measure, in the same setting: in the case of `N=C(N)SCc1ccccc1C(=O)c1ccc(Cl)cc1CSC(=N)N` [Example 2.29, 2-(6-(amidinothiomethyl)phenyl)carbonyl-1-(amidinothiomethyl)-5-chlorobenzene dihydrobromide] it was not below 1000 nM; in that of `N=C(N)SCc1cc(F)ccc1Oc1cc(Cl)ccc1CSC(=N)N` [Example 2.30, 2-[2-({[amino(imino)methyl]thio}methyl)-5-chlorophenoxy]-5-fluorobenzyl imidothiocarbamate dihydrobromide], 100 to 1000 nM; in that of `N=C(NN)SCc1ccccc1Sc1ccccc1CSC(=N)NN` [Example 3, 2-(6-((aminoamidino)thiomethyl)phenyl)thio-1-((aminoamidino)thiomethyl)benzene dihydrobromide], not below 1000 nM.

On to `N=C(N)NCCc1ccccc1Sc1ccccc1CCNC(=N)N` [Example 5, (4-methylbenzenesulfonate)], for which the IC50 was not below 1000 nM. On the same count and under the same terms, in the case of `N=C(N)CCc1ccccc1Sc1ccccc1CCC(=N)N` [Example 6, 2-(6-(2-amidinoethyl)phenyl)thio-1-(2-amidinoethyl)benzene] it was not below 1000 nM; in that of `N=C(N)Cc1ccccc1Sc1ccccc1CC(=N)N` [Example 6.1, 2-(6-(amidinomethyl)phenyl)thio-1-(amidinomethyl)benzene], not below 1000 nM. Same read-out and setting: the result for `N=C(N)CCCc1ccccc1Sc1ccccc1CCCC(=N)N` [Example 6.2, 2-(6-(3-amidinopropyl)phenyl)thio-1-(3-amidinopropyl)benzene] reads not below 1000 nM. The same measure, in the same setting: in the case of `N#CN=C(N)Cc1ccccc1Sc1ccccc1CC(N)=NC#N` [Example 7.1, 2-(6-((cyanoamidino)methyl)phenyl)thio-1-((cyanoamidino)methyl)benzene] it was not below 1000 nM. Turning to `NC(=S)Nc1ccccc1Sc1ccccc1NC(N)=S` [Example 8, 1,1′-(2,2′-thiobis(2,1-phenylene))dithiourea], the IC50 was not below 1000 nM. Still for that read-out and setting: the result for `N=C(N)SCc1ccccc1-c1ccccc1CSC(=N)N` [Example 9, 2-(2′-carbamimidoylsulfanylmethyl-biphenyl-2-ylmethyl)-isothiourea] reads not below 1000 nM.

Test system in the next series: not given
Assay: not given
Details: not given
In turn, `N=C(N)SCc1ccc(Cl)cc1Oc1cc([N+](=O)[O-])ccc1CSC(=N)N` (as salt: hydrobromid) [Example 2.9, 2-[2-({[amino(imino)methyl]thio}methyl)-5-chlorophenoxy]-4-nitrobenzyl imidothiocarbamate dihydrobromide] registered a melting point of more than 220 °C.

`N=C(N)SCc1cc(F)ccc1Oc1cccc(Cl)c1CSC(=N)N` (as salt: hydrobromid) [Example 2.10, 2-[2-(2-carbamimidoylsulfanylmethyl-3-chlorophenoxy)-5-fluorobenzyl]isothiourea dihydrobromide] returned a melting point of 204 to 206 °C.

`N=C(N)SCc1cc(F)ccc1Oc1ccc(Cl)cc1CSC(=N)N` (as salt: hydrobromid) [Example 2.11, 2-[2-(2-carbamimidoylsulfanylmethyl-4-chlorophenoxy)-5-fluorobenzyl]isothiourea dihydrobromide] came in with a melting point of more than 230 °C.

In turn, `N=C(N)SCc1cc(F)ccc1Oc1ccc([N+](=O)[O-])cc1CSC(=N)N` (as salt: hydrobromid) [Example 2.14, 2-[2-({[amino(imino)methyl]thio}methyl)-4-fluorophenoxy]-5-nitrobenzyl imidothiocarbamate dihydrobromide] gave a melting point of more than 220 °C. On the same count and under the same terms, the result for `N=C(N)SCc1ccccc1Oc1ccc(Cl)cc1CSC(=N)N` (as salt: hydrobromid) [Example 2.16, 2-[2-({[amino(imino)methyl]thio}methyl)-4-chlorophenoxy]benzyl imidothiocarbamate dihydrobromide] reads more than 220 °C; that for `N=C(N)SCc1ccccc1Oc1cccc(Cl)c1CSC(=N)N` (as salt: hydrobromid) [Example 2.17, 2-[2-({[amino(imino)methyl]thio}methyl)-3-chlorophenoxy]benzyl imidothiocarbamate dihydrobromide], 150 to 152 °C.

In turn, `N=C(N)SCc1ccccc1Oc1cc(Cl)ccc1CSC(=N)N` (as salt: hydrobromid) [Example 2.18, 2-[2-({[amino(imino)methyl]thio}methyl)-5-chlorophenoxy]benzyl imidothiocarbamate dihydrobromide] yielded a melting point of more than 220 °C. `N=C(N)SCc1cc([N+](=O)[O-])ccc1Oc1cc(Cl)ccc1CSC(=N)N` (as salt: hydrobromid) [Example 2.19, 2-[2-({[amino(imino)methyl]thio}methyl)-5-chlorophenoxy]-5-nitrobenzyl imidothiocarbamate dihydrobromide] showed a melting point of more than 220 °C. `N=C(N)SCc1cc(Cl)ccc1Oc1ccc([N+](=O)[O-])cc1CSC(=N)N` (as salt: hydrobromid) [Example 2.20, 2-[2-({[amino(imino)methyl]thio}methyl)-4-chlorophenoxy]-5-nitrobenzyl imidothiocarbamate dihydrobromide] had a melting point of more than 220 °C. `N=C(N)SCc1ccccc1Oc1ccc(F)cc1CSC(=N)N` (as salt: hydrobromid) [Example 2.21, 2-[2-({[amino(imino)methyl]thio}methyl)-4-fluorophenoxy]benzyl imidothiocarbamate dihydrobromide] came in with a melting point of more than 220 °C. The same measure, in the same setting: the result for `N=C(N)SCc1cccc(CSC(=N)N)c1-c1c(CSC(=N)N)cccc1CSC(=N)N` (as salt: hydrobromid) [Example 2.23, biphenyl-2,2′-6,6′-tetrayltetrakis(methylene)tetracarbamimidothioate tetrahydrobromide] reads 233 to 235 °C; that for `COC(=O)c1cccc(CSC(=N)N)c1-c1c(CSC(=N)N)cccc1C(=O)OC` (as salt: hydrobromid) [Example 2.24, dimethyl 6,6′-bis(carbamimidoylthiomethyl)biphenyl-2,2′-dicarboxylate dihydrobromide], 222 to 225 °C. Regarding `N=C(N)SCc1ccccc1C(=O)c1ccccc1CSC(=N)N` (as salt: hydrobromid) [Example 2.25, 2-(6-(amidinothiomethyl)phenyl)carbonyl-1-(amidinothiomethyl)benzene dihydrobromide], the melting point was 239 to 240 °C (dec.).
